According to patent US20070043064A1, “7-Substituted 3-nitro-pyrazo[1,5-a] pyrimidines” (FERRER INTERNACIONAL S.A., priority 2003, published 2007):
Like-named read-outs stand apart in the source and are kept apart here.

Columns and labels:
α1-GABAA receptor = biological target: T1, α1-GABAA receptor (Rattus norvegicus, UniProt P62813); test: Ligand-binding assay, radiolabeled flumazenil competition, cerebellum membranes
T1 construct: the cerebellum (tissue that mostly contains α1-GABAA receptor); from tissue; host or cells: rat cerebellum membranes
Procedure: (§1) Ligand-Binding Assays. Determination of the Affinity of Test Compounds for α1- and α2-GABAA Receptors.
(§2) Male Sprague-Dawley rats weighing 200-250 g at the time of experiment were used. After decapitation of the animal, the cerebellum (tissue that mostly contains α1-GABAA receptor) and spinal cord (tissue that mostly contains α2-GABAA receptor) were removed. The membranes were prepared according to the method by J. Lameh et al. (Prog. Neuro-Psychopharmacol. Biol. Psychiatry, 24, 979-991, 2000). Once the tissues weighed, they were suspended in 50 mM Tris HCl buffer, pH 7.7, (1:40 v/v), homogenized and then centrifuged at 20000 g for 10 min at 7° C. The resulting pellet was resuspended under the same conditions and centrifuged again. The final pellet obtained was resuspended on a minimum volume and kept at −80° C. overnight. On the next day, the process was repeated until the final pellet was resuspended at a ratio of 1:10 (v/v).
(§3) The affinity of the compounds was determined by competitive tests using radiolabeled flumazenil as ligand. The methods described by S. Arbilla et al. (Eur. J. Pharmacol., 130, 257-263, 1986); and Y. Wu et al. (Eur. J. Pharmacol., 278, 125-132, 1995) were used. The membranes containing the study receptors, flumazenil (radiolabeling at a final concentration of 1 nM) and ascending concentrations of test compounds (in a total volume of 500 μl in […] [ph 7.4] Tris HCl buffer) were incubated. Simultaneously, the membranes were only incubated with the radiolabeled flumazenil (total binding, 100%) and in the presence of an elevated concentration of unradiolabeled flumazenil (non-specific binding, % estimate of radiolabeled ligand). The reactions started on adding the radiolabeled ligand followed by incubation for 60 minutes at 0° C. At the end of the incubation period, the tubes were filtered using a Brandel Mod. M-48R harvester and then washed three times with cold test buffer. The harvester was fitted with a GF/B filter that retained the membranes containing the receptors and the radiolabeled ligand which had been bound to the receptors. Then the filters were removed and left till dry. Once dried, the filters were cut, placed in vials with scintillation liquid and left under stirring overnight. The next day the filters were counted using a Packard Mod. Tricarb scintillation counter.
(§4) T: total binding, maximum amount bound to the radiolabeled ligand. N: Non-specific binding, amount of radiolabeled ligand bound in a non-specific way irrespective of the receptor used.
(§5) Every concentrations of compound were tested in duplicate and their mean values were used to determine the experimental values of % specific binding versus the concentration of compound. […] Inhibition constants (Ki) were calculated from the IC50 values according to Cheng-Prusoff's formula (Y. Cheng y W. H. Prusoff, Biochem. Pharmacol., 22(23), 3099-3108, 1973).

male CD1 mice = test: Predictive sedation-hypnosis test in mice (motor activity, crossings); format: in vivo; settings: single equimolecular intraperitoneal dose, crossings over 30 min after dosing (first 5 min discarded) versus control animals
Procedure: In Vivo Determination of Predictive Sedative-Hypnotic Action.
The in vivo effects of these compounds were assessed by a predictive sedation-hypnosis test in mice (D. J. Sanger et al., Eur. J. Pharmacol., 313, 35-42, 1996; and G. Griebel et al., Psychopharmacology, 146, 205-213, 1999).
Groups of 5-8 male CD1 mice, weighing 22-26 g at the time of test, were used. The test compounds were administered in single equimolecular intraperitoneal doses, suspended in 0.25% agar with one drop of Tween in a volume of 10 ml/kg. Control animals received the vehicle alone. Using an Actisystem DAS16 (Panlab, S. L., Spain) the crossings (number of counts) were recorded for each mouse at 5-min intervals during a period of 30 minutes after dosing. The inhibition percentage of crossings of treated animals versus control animals (the first 5 min were discarded) was calculated.

α2-GABAA receptor = α2-GABAA receptor (Rattus norvegicus, UniProt P18508+P23576); test: Ligand-binding assay, radiolabeled flumazenil competition, spinal cord membranes; settings: for inhibition at 10 µM: compound at 10^−5M; for inhibition at 0.1 µM: compound at 10^−7M
Procedure: as §1, §2, §3, §4, §5

[1] = read-out: Affinity for α1-GABAA receptor, Ki

CCCN(c1cccc(-c2ccnc3c([N+](=O)[O-])cnn23)c1)S(=O)(=O)c1ccc(OC)cc1
melting point: 184 to 185 °C

COc1ccc(S(=O)(=O)N(C)c2cccc(-c3ccnc4c([N+](=O)[O-])cnn34)c2)cc1
melting point: 205 to 206 °C

CCN(C(C)=O)c1cccc(-c2ccnc3c([N+](=O)[O-])cnn23)c1 [Example 1, N-ethyl-N-[3-(3-nitro-pyrazolo[1,5-a]pyrimidin-7-yl)-phenyl]-acetamide]
Ki (α1-GABAA receptor): 88.6 nM | % Inhibition Motor Activity (male CD1 mice): 77.25% | melting point: 176 to 178 °C

O=[N+]([O-])c1cnn2c(-c3cccnc3)ccnc12
melting point: 302 to 303 °C

CCCN(c1cccc(-c2ccnc3c([N+](=O)[O-])cnn23)c1)S(C)(=O)=O [Example 25, N-[3-(3-nitro-pyrazolo[1,5-a]pyrimidin-7-yl)-phenyl]-N-(n-propyl)-methanesulfonamide]
Ki (α1-GABAA receptor): 102 nM | % Inhibition Motor Activity (male CD1 mice): 61.06% | melting point: 165 to 167 °C

O=[N+]([O-])c1cnn2c(-c3ccccc3C(F)(F)F)ccnc12
melting point: 195 to 197 °C

CCS(=O)(=O)N(C)c1cccc(-c2ccnc3c([N+](=O)[O-])cnn23)c1 [Example 32, N-[3-(3-nitro-pyrazolo[1,5-a]pyrimidin-7-yl)-phenyl]-N-methyl-ethanesulfonamide]
Ki (α1-GABAA receptor): 31 nM | inhibition at 10 µM (α2-GABAA receptor): 89% | inhibition at 0.1 µM (α2-GABAA receptor): 21% | % Inhibition Motor Activity (male CD1 mice): 91.57%

O=[N+]([O-])c1cnn2c(-c3ccc(C(F)(F)F)cc3)ccnc12
melting point: 191 to 193 °C

CCCN(C(C)=O)c1cccc(-c2ccnc3c([N+](=O)[O-])cnn23)c1 [Example 3, N-[3-(3-nitro-pyrazolo[1,5-a]pyrimidin-7-yl)-phenyl]-N-(n-propyl)-acetamide]
Ki (α1-GABAA receptor; [1]): 110 nM | % Inhibition Motor Activity (male CD1 mice): 61.68%

C#CCN(c1cccc(-c2ccnc3c([N+](=O)[O-])cnn23)c1)S(C)(=O)=O [Example 28, N-[3-(3-nitro-pyrazolo[1,5-a]pyrimidin-7-yl)-phenyl]-N-(prop-2-inyl)-methanesulfonamide]
Ki (α1-GABAA receptor): 11.7 nM | inhibition at 10 µM (α2-GABAA receptor): 96.4% | inhibition at 0.1 µM (α2-GABAA receptor): 29% | % Inhibition Motor Activity (male CD1 mice): 94.19%

C#CCN(C(C)=O)c1cccc(-c2ccnc3c([N+](=O)[O-])cnn23)c1 [Example 5, N-[3-(3-nitro-pyrazolo[1,5-a]pyrimidin-7-yl)-phenyl]-N-(2-propynyl)-acetamide]
Ki (α1-GABAA receptor): 38.6 nM | % Inhibition Motor Activity (male CD1 mice): 79.06%

O=[N+]([O-])c1cnn2c(-c3cccs3)ccnc12
melting point: 235 to 237 °C

CCCN(c1cccc(-c2ccnc3c([N+](=O)[O-])cnn23)c1)S(=O)(=O)c1ccccc1
melting point: 154 to 156 °C

O=[N+]([O-])c1cnn2c(-c3cccc(C(F)(F)F)c3)ccnc12 [Example 8, 3-nitro-7-(3-trifluoromethyl-phenyl)-pyrazolo[1,5-a]pyrimidine]
Ki (α1-GABAA receptor; [1]): 623 nM | % Inhibition Motor Activity (male CD1 mice): 69.08% | melting point: 159 to 161 °C

CCN(c1cccc(-c2ccnc3c([N+](=O)[O-])cnn23)c1)S(=O)(=O)c1ccc(OC)cc1
melting point: 209 to 211 °C

CC(C)S(=O)(=O)N(C)c1cccc(-c2ccnc3c([N+](=O)[O-])cnn23)c1 [Example 35, N-[3-(3-nitro-pyrazolo[1,5-a]pyrimidin-7-yl)-phenyl]-N-methyl-propane-2-sulfonamide]
Ki (α1-GABAA receptor): 41.2 nM | inhibition at 10 µM (α2-GABAA receptor): 91.5% | inhibition at 0.1 µM (α2-GABAA receptor): 18.9% | % Inhibition Motor Activity (male CD1 mice): 91.21%

O=[N+]([O-])c1cnn2c(-c3ccco3)ccnc12
melting point: 235 to 237 °C

CCN(C(C)=O)c1cccc(-c2ccnc3c(C#N)cnn23)c1 [Zaleplon, zaleplon, reference compound]
inhibition at 10 µM (α2-GABAA receptor): 78.4% | % Inhibition Motor Activity (male CD1 mice): 47.17%

O=C1CCCN1c1cccc(-c2ccnc3c([N+](=O)[O-])cnn23)c1
melting point: 226 to 228 °C

CCCCN(c1cccc(-c2ccnc3c([N+](=O)[O-])cnn23)c1)S(=O)(=O)c1ccc(OC)cc1
melting point: 189 to 190 °C

O=[N+]([O-])c1cnn2c(-c3ccncc3)ccnc12
melting point: 241 to 244 °C

CN(c1cccc(-c2ccnc3c([N+](=O)[O-])cnn23)c1)S(C)(=O)=O [Example 18, N-methyl-N-[3-(3-nitro-pyrazolo[1,5-a]pyrimidin-7-yl)-phenyl]-methanesulfonamide]
Ki (α1-GABAA receptor): 28.3 nM | % Inhibition Motor Activity (male CD1 mice): 68.55%

C#CCN(c1cccc(-c2ccnc3c([N+](=O)[O-])cnn23)c1)S(=O)(=O)C(C)C [Example 31, N-[3-(3-nitro-pyrazolo[1,5-a]pyrimidin-7-yl)-phenyl]-N-(n-prop-2-inyl)-propane-2-sulfonamide]
Ki (α1-GABAA receptor): 48.5 nM | inhibition at 10 µM (α2-GABAA receptor): 81.3% | inhibition at 0.1 µM (α2-GABAA receptor): 4.2% | % Inhibition Motor Activity (male CD1 mice): 94.31%

CCN(c1cccc(-c2ccnc3c([N+](=O)[O-])cnn23)c1)S(C)(=O)=O [Example 15, N-ethyl-N-[3-(3-nitro-pyrazolo[1,5-a]pyrimidin-7-yl)-phenyl]-methanesulfonamide]
Ki (α1-GABAA receptor): 11.1 nM

CC(=O)N(C)c1cccc(-c2ccnc3c([N+](=O)[O-])cnn23)c1 [Example 2, N-methyl-N-[3-(3-nitro-pyrazolo[1,5-a]pyrimidin-7-yl)-phenyl]-acetamide]
Ki (α1-GABAA receptor): 96.8 nM | % Inhibition Motor Activity (male CD1 mice): 77.25%

CCCCN(c1cccc(-c2ccnc3c([N+](=O)[O-])cnn23)c1)S(=O)(=O)c1ccccc1
melting point: 159 to 160 °C

CCCCN(c1cccc(-c2ccnc3c([N+](=O)[O-])cnn23)c1)S(C)(=O)=O
melting point: 153 to 155 °C

O=[N+]([O-])c1cnn2c(-c3cccc(N4CCCS4(=O)=O)c3)ccnc12 [Example 34, 7-(3-(2-isothiazolidinyl-1,1-dioxide)-phenyl)-3-nitro-pyrazolo[1,5-a]pyrimidine]
Ki (α1-GABAA receptor; [1]): 165 nM | inhibition at 10 µM (α2-GABAA receptor): 86.9% | inhibition at 0.1 µM (α2-GABAA receptor): 4.3% | % Inhibition Motor Activity (male CD1 mice): 64.23%
